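96-well plates; 48 h exposure; 5 concentrations. Endpoints by linear interpolation between flanking doses. Not reached: highest tested concentration assigned. TGI marks complete inhibition of growth.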
Experiments:
Assay in all cases: NCI anticancer screen, dose series, 48 h
[1] = system: M19-MEL melanoma
[2] = system: DMS 273 small cell lung
[3] = system: DLD-1 colon
[4] = system: HOP-18 NSCLC
[5] = system: KM20L2 colon
[6] = system: SNB-78 CNS
[7] = system: DMS 114 small cell lung
[8] = system: XF 498 CNS
[9] = system: RXF-631 renal

Structure (SMILES) | TGI [1] [µM] | TGI [2] [µM] | TGI [3] [µM] | TGI [4] [µM] | TGI [5] [µM] | TGI [6] [µM] | TGI [7] [µM] | TGI [8] [µM] | TGI [9] [µM]
O=S(=O)(c1ccccc1)N1N=C2c3ccccc3CCC[C@H]2C1c1ccccc1 (stereo partly specified) | > 100 | > 100 | > 100 | > 100 | > 100 | > 100 | > 100 | > 100 | –
C=CCC1(CN(C)C)CC/C(=C\c2ccc(Cl)cc2)C1=O (stereo unspecified) | > 92.7 | > 59.1 | > 94.4 | > 100 | > 67.4 | > 72 | > 72.2 | > 100 | –
CCCCC/C=C1\CCC(CN(C)C)C1=O (stereo unspecified) | 26.6 | 34 | 14.4 | 39.4 | 30.1 | 58.7 | 29 | 28.3 | 28.3
CCOC(=O)/C(=C/c1ccc(N(C)C)cc1)N(CC)CC | 60.1 | – | – | – | > 100 | > 100 | > 100 | > 100 | –
C[N+](C)(C)CC1CCC/C1=N\OC(=O)c1ccccc1 (stereo unspecified) | > 100 | – | > 100 | > 100 | > 100 | > 100 | > 100 | > 100 | –
Cn1c2ccccc2c2ncc3[nH]c4ccccc4c3c21 | 49.1 | 34.7 | > 100 | – | 36.6 | 57.6 | 54.3 | 31.8 | > 100
Cn1cnnc1Sc1c([N+](=O)[O-])ncn1C | – | > 100 | > 100 | 82.5 | – | > 100 | > 100 | > 100 | > 100
C[C@]12CCC(=O)C=C1CC[C@@H]1C2CC[C@]2(C)Nc3[nH]ncc3CC12 (stereo partly specified) | > 100 | > 100 | > 100 | – | > 100 | > 100 | > 100 | > 100 | –
C=C(C)C1CCC2(C)CC1c1c(c(C)cc3c1[nH]c1ccccc13)O2 (stereo unspecified) | > 25 | > 25 | > 25 | – | > 25 | – | > 25 | > 25 | –
O=[N+]([O-])c1ccc(-c2cnc3ccccn23)cc1 | > 100 | > 100 | – | – | > 100 | > 100 | > 100 | > 100 | –
COC(=O)C(C(=O)Cc1ccccc1[N+](=O)[O-])C(=O)OC | > 100 | > 100 | > 100 | > 100 | > 100 | – | – | > 100 | > 100
Cc1nn(C(=O)CC(=O)Nc2ccc(Cl)cc2)c(C)c1N=Nc1ccccc1C(=O)O | > 100 | > 100 | > 100 | – | > 100 | > 100 | > 100 | – | –
CN(C)CCNC(=O)c1cccc2c(Nc3ccc(S(=O)(=O)N=C(N)N)cc3)c3ccccc3nc12 | 59.9 | 24.2 | > 100 | – | > 100 | – | 15.1 | 47.4 | –
CC1(C)CC(=O)CC(=Nc2ccc([N+](=O)[O-])cc2)C1 | > 100 | > 100 | 49.6 | > 100 | > 100 | > 100 | > 100 | > 100 | > 100
CC(Oc1ccc(OCC2CCCCC2)cc1)C(=O)OCC(=O)c1ccc(-c2ccccc2)cc1 (stereo unspecified) | > 100 | > 100 | > 100 | > 100 | – | > 100 | > 100 | > 100 | –
COc1ccc(/C=C(\C(C)=O)C(=O)Nc2ccccc2)cc1 | > 100 | – | > 100 | > 100 | – | > 100 | > 100 | – | –
CC(C)=CC1CC(=[N+]=[N-])C(=O)C1(C)C (stereo unspecified) | > 100 | – | > 100 | > 100 | > 100 | > 100 | > 100 | > 100 | –
C=CN1C(=O)[C@H](Oc2ccccc2)[C@@H]1c1ccccc1 | > 100 | – | > 100 | > 100 | > 100 | > 100 | > 100 | 84 | –
COc1cc2c3c(c1OC)-c1cc4c(cc1CC3(C#N)N(C(=O)c1ccccc1)CC2)OCO4 (stereo unspecified) | > 100 | > 79.4 | > 100 | 93.2 | > 100 | 42.6 | > 85.1 | 24.8 | –
COc1ccc(OC)c(/C=C(/C#N)c2ccccc2)c1 | > 100 | 24.5 | > 100 | > 100 | > 100 | – | – | – | –
COC(=O)[C@@]1(C)/C(=N/NS(=O)(=O)c2ccc(C)cc2)CCC[C@@H]1C | > 100 | – | > 100 | > 100 | > 100 | > 100 | 45 | – | –
CS(=O)(=O)c1ccc(-c2cc(-c3ccc(S(C)(=O)=O)cc3)[n+](-c3cc(-c4ccccc4)c([O-])c(-c4ccccc4)c3)c(-c3ccc(S(C)(=O)=O)cc3)c2)cc1 | > 100 | > 100 | – | > 100 | > 100 | > 100 | > 100 | > 100 | > 100
O=C(CSc1c2ccccc2nc2ccccc12)Nc1ccccc1-c1ccccc1NC(=O)CSc1c2ccccc2nc2ccccc12 | 61.1 | > 100 | 33.4 | > 100 | > 100 | 92.2 | 46.8 | 46.2 | –
COc1ccc(C(C#N)NNC(=O)Cc2ccccc2)cc1OC (stereo unspecified) | > 100 | > 100 | > 100 | > 100 | – | > 100 | > 100 | – | –

— PubChem BioAssay (NCI)
